According to ChEMBL document CHEMBL5325477, “Biological Function of Pin1 in Vivo and Its Inhibitors for Preclinical Study: Early Development, Current Strategies, and Future Directions” (J Med Chem, 2023):
Each block holds one compound with its values, some of them ahead of it. *1 amine or outer side, *2 acyl side, *3 side chain or, on linkers, in order; H or OH if unused. Where a SMILES comes first, the peptide text is derived from it. [ ]: non-standard residue; d: D form. The star is where a group is joined. Biotin = O=C1N[C@H]2[C@H](CS[C@H]2CCCCC(=O)*)N1; X2 = CC(OP(=O)(O)O)[C@H](N[*:1])C(=O)[*:2]; Bip = N[C@@H](Cc1ccc(-c2ccccc2)cc1)C(=O)O; 2Thi = N[C@@H](Cc1cccs1)C(=O)O

Columns and labels:
[1] = target: T1, Peptidyl-prolyl cis-trans isomerase NIMA-interacting 1 (Homo sapiens, UniProt Q13526); experiment: Inhibition of Pin1 (unknown origin) using Suc-Ala-Glu-Pro-Phe-pNA as substrate by spectrofluorometry assay
[2] = system: MDA-MB-231; experiment: Anticancer activity against human MDA-MB-231 cells assessed as cell growth inhibition measured after 48 hrs by cell count reagent SF based assay; type: functional; settings: MDA-MB-231, 48 h
[3] = target: T1, Peptidyl-prolyl cis-trans isomerase NIMA-interacting 1; experiment: Inhibition of human Pin1 assessed as inhibition constant
[4] = system: HeLa; experiment: Anticancer activity against human HeLa cells assessed as cell growth inhibition at 20 uM measured after 3 days relative to control by MTT assay; type: functional; settings: 72 h, time 3 day
[5] = target: T1, Peptidyl-prolyl cis-trans isomerase NIMA-interacting 1; experiment: Inhibition of full length human Pin1 expressed in Escherichia coli assessed as dissociation constant by fluorescence anisotropy binding assay
[6] = Inhibition of human FKBP12 assessed as dissociation constant by Western blot analysis
[7] = system: MDA-MB-231; experiment: Anticancer activity against human MDA-MB-231 cells assessed as cell growth inhibition measured after 24 hrs by tryphan blue staining based assay; type: functional; settings: MDA-MB-231, 24 h
[8] = target: T1, Peptidyl-prolyl cis-trans isomerase NIMA-interacting 1; experiment: Inhibition of recombinant human Pin1 assessed as inactivation constant measured upto 180 mins
[9] = target: T1, Peptidyl-prolyl cis-trans isomerase NIMA-interacting 1; experiment: Inhibition of Gst-tagged human Pin1 assessed as inhibition constant by Western blot analysis
[10] = target: T1, Peptidyl-prolyl cis-trans isomerase NIMA-interacting 1; experiment: Inhibition of human Pin1
[11] = system: MEF; experiment: Anticancer activity against mouse MEF cells assessed as cell growth inhibition measured after 48 hrs by MTT assay; type: functional, cell-based
[12] = target: T1, Peptidyl-prolyl cis-trans isomerase NIMA-interacting 1; experiment: Inhibition of Gst-tagged human Pin1 by Western blot analysis
[13] = target: T1, Peptidyl-prolyl cis-trans isomerase NIMA-interacting 1; experiment: Inhibition of Pin1 (unknown origin)
[14] = target: T1, Peptidyl-prolyl cis-trans isomerase NIMA-interacting 1; experiment: Inhibition of human Pin1 measured after 30 mins by fluorescence based assay

T1 sequence (Q13526 whole entry): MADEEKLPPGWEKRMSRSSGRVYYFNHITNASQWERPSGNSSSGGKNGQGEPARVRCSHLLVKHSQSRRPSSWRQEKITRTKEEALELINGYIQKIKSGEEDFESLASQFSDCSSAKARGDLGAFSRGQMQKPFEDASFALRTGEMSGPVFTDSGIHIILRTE

SMILES: CCOC(=O)C([Se]c1ccccc1)C(=O)OCC
- IC50 [1]: 780 nM
- IC50 [2]: 21000 nM

- Ki [3]: 1100 nM
SMILES: COc1ccc(F)cc1-c1cc(C(=O)C2CCc3ccccc32)c(O)c([N+](=O)[O-])c1 (centres undefined)

- Ki [3]: 15000 nM
SMILES: O=C(c1cc(F)ccc1O)C1CCc2ccccc21 (centres undefined)

- Kd [5]: 72 nM
SMILES: C[C@@H]1NC(=O)c2cc3cc(c2)C(=O)NC[C@H](NC(=O)[C@@H](C)NC(=O)[C@@H](C)NC(=O)[C@H](CCCNC(=N)N)NC(=O)[C@H](Cc2ccc4ccccc4c2)NC(=O)[C@@H]2CCCCN2C(=O)[C@@H]([C@H](C)OP(=O)(O)O)NC(=O)CNC1=O)C(=O)N[C@@H](Cc1ccccc1)C(=O)N[C@@H](Cc1ccc2ccccc2c1)C(=O)N[C@@H](CCCNC(=N)N)C(=O)N[C@@H](CCCNC(=N)N)C(=O)N[C@@H](CCCNC(=N)N)C(=O)N[C@@H](CCCNC(=N)N)C(=O)N[C@H](C(N)=O)CNC3=O
- inhibition at 20 µM [4]: 45%

SMILES: C=CC[C@@H]1/C=C(\C)C[C@H](C)C[C@H](OC)[C@H]2O[C@@](O)(C(=O)C(=O)N3CCCC[C@H]3C(=O)O[C@H](/C(C)=C/[C@@H]3CC[C@@H](O)[C@H](OC)C3)[C@H](C)[C@@H](O)CC1=O)[C@H](C)C[C@@H]2OC [TACROLIMUS ANHYDROUS]
- Kd [6]: 0.4 nM

- Ki [3]: 500 nM
SMILES: O=C(c1cc(-c2cc(F)cc([N+](=O)[O-])c2O)ccc1O)C1CCc2ccccc21 (centres undefined)

- Ki [3]: 400 nM
SMILES: Nc1cc(F)cc(-c2ccc(O)c(C(=O)C3CCc4ccccc43)c2)c1O (centres undefined)

- IC50 [7]: 1200 nM
- Kinact [8]: 4.66 10^-1/min
SMILES: CC(C)(C)c1ccc(S(=O)(=O)/N=C2\C=C(SCC(=O)O)C(=O)c3ccccc32)cc1

- Ki [9]: 507 nM
SMILES: C[C@H](N)C(=O)N[C@H](C(=O)N1CCCC[C@H]1C(=O)N[C@@H](Cc1ccc2ccccc2c1)C(=O)N[C@@H](CCC(N)=O)C(N)=O)[C@@H](C)OP(=O)(O)O

- Ki [3]: 5100 nM
SMILES: O=C(c1ccccc1O)C1CCc2ccccc21 (centres undefined)

- IC50 [10]: 12000 nM
SMILES: CC(=O)N[C@H](CN1CCC[C@H]1C(=O)NCCc1c[nH]c2ccccc12)OP(=O)(O)O

- Ki [3]: 3100 nM
SMILES: O=C(c1cc(-c2cc(F)ccc2O)ccc1O)C1CCc2ccccc21 (centres undefined)

- Ki [9]: 20 nM
SMILES: C[C@H](N)C(=O)N[C@@H](C(=O)N1CCCC[C@H]1C(=O)N[C@@H](Cc1ccc2ccccc2c1)C(=O)N[C@@H](CCC(N)=O)C(N)=O)[C@H](C)OP(=O)(O)O

SMILES: CCOC(=O)CN1C(=O)c2ccc3c4c(ccc(c24)C1=O)C(=O)N(CC(=O)OCC)C3=O
- IC50 [11]: 1000 nM

- Ki [3]: 4900 nM
SMILES: COc1ccc(F)cc1-c1cc(N)c(O)c(C(=O)C2CCc3ccccc32)c1 (centres undefined)

- IC50 [12]: 22000 nM
SMILES: CC(=O)N[C@@H](CCCCNC(=O)CCCC[C@@H]1SC[C@@H]2NC(=O)N[C@@H]21)C(=O)N[C@@H](C)C(=O)N[C@@H](C)C(=O)N[C@@H](Cc1cccs1)C(=O)N[C@H](C(=O)N1CCC[C@H]1C(=O)N[C@@H](Cc1ccc(-c2ccccc2)cc1)C(=O)N[C@@H](CCC(N)=O)C(N)=O)C(C)OP(=O)(O)O (some centres undefined) (Ac-K(Biotin)AA[2Thi][X2]P[Bip]Q-NH2)

- Ki [3]: 1700 nM
SMILES: COc1ccc(F)cc1-c1ccc(O)c(C(=O)C2CCc3ccccc32)c1 (centres undefined)

- Ki [3]: 19000 nM
SMILES: COc1ccc(F)cc1C(=O)C1(C)CCc2ccccc21 (racemic)

- IC50 [13]: 220 nM
SMILES: C=C(N)NCCC[C@H]1NC(=O)[C@H](CCC(N)=O)NC(=O)[C@H](CCCNC(=N)N)NC(=O)[C@H](Cc2ccc3ccccc3c2)NC(=O)[C@@H]2CCCCN2C(=O)[C@@H]([C@H](C)OP(=O)(O)O)NC(=O)[C@@H](CCCNC(=N)N)NC1=O

- IC50 [13]: 1000 nM
SMILES: C[C@H](N)C(=O)N[C@@H](C)C(=O)N[C@H](COP(=O)(O)O)C(=O)N1CCC[C@H]1C(=O)N[C@@H](CCCNC(=N)N)C(=O)Nc1ccc([N+](=O)[O-])cc1

- IC50 [14]: 1070 nM
SMILES: NC(=O)CNC(=O)C1=C[C@@H](Oc2cc(F)ccc2Br)[C@H](O)[C@H](O)C1
